From patent US6706839B1, “Chemical partitioning agents and methods of using same” (University of Pittsburgh, priority 1999, dated 2004)

Test: Solubility of stilbene precipiton isomers in organic solvents (qualitative observations)
Format: physicochemical
Conditions: for solubility in THF: reaction solvent of the Z to E isomerization
Method: When a solution of (Z)-stilbene (51Z or 52Z) in THF was heated to reflux at 80-90° C. in the presence of Ph2S2 (0.2 equiv) for several hours, the Z to E isomerization occurred smoothly. The reaction was followed by ^1H NMR (either vinylic protons or NMe2 (51Z), OMe (52Z)). As the reaction proceeded, solid precipitate came out of the solution. […] The E-isomer was obtained pure in a 44% (51E) and 79% (52E) yield, respectively without any contamination of either Z-isomer or Ph2S2. […] In high-boiling solvents such as toluene and p-dioxane, the isomerization was faster than in THF and the reaction was completed in less than 3 h (Table 32). A second catalytic method for isomerization/precipitation employs iodine and a radical initiator, for example dibenzoylperoxide. Irradiation of the cis-alkenes in the presence of 1-50 mol % iodine and 0.1-25 mol % dibenzoylperoxide affords clean isomerization of the cis to trans alkene.
(2-Naphthalenylmethyl)triphenylphosphonium bromide ((a) Tinnemans, A. H. A.; Laarhoven, W. H. J. Chem. Soc. Perkin. Trans. 2, 1976, 1104-1111. (b) Zelikovich, L.; Hoffman, R. E.; Ayalon, A.; Rabinovitz, M. J. Chem. Soc. Perkin. Trans. 2, 1992, 1785-1792) was treated with NaH in DMF to generate a corresponding ylide. A solution of 4-methoxy-1-naphthaldehyde in DMF was added and stirred at 35-50° C. for 2 h at to give 1,2-naphthylstilbene 53 in 51% yield (53Z:53E=1:1.2). 6-Methoxy-2-naphthaldehyde ((a) Harvey, R. G.; Cortez, C.; Sawyer, T. W.; DiGiovanni, J.; J. Med. Chem. 1988, 31, 1308-1312. (b) Harvey, R. G.; Cortez, C. Tetrahedron, 1997, 53, 7101-7118) was prepared by formylation (Beringer, F. M.; Nathan, R. A. J. Org. Chem. 1969, 34, 685-689) of 6-methoxy-2-bromonaphthalene in 53% yield. When (2-naphthalenylmethyl)-triphenylphosphonium bromide was reacted with 6-methoxy-2-naphthaldehyde in a similar manner as 1,2-naphthylstilbene, (Z)-2,2-naphthylstilbene 54Z was prepared in 39% isolated yield. […]

Row | solubility in Et2O, compared with 52E (Et2O, trituration solvent, relative to 52E) | solubility in THF | Compound
1 | bigger solubility | partially soluble | CN(C)c1ccc(/C=C/c2ccc(Br)cc2)cc1 [51E]
2 | – | partially soluble | COc1ccc(/C=C/c2ccc(-c3ccccc3)cc2)cc1 [52E]
